Assay results published in publication PMC3500442 (ACS Chemical Biology, 2012).

Target: T1, MJ0408 (MptD, archaeal DHNA) (Methanocaldococcus jannaschii, UniProt Q57851)
T1 sequence (Q57851 1-121): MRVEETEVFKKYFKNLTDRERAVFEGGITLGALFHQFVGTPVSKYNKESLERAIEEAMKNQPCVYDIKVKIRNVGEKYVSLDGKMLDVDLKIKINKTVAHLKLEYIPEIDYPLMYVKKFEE
Assay: HPLC fluorescence after iodine oxidation
Type: biochemical
Details: 110 uM H2Neo, 8 mM MgCl2, 16 mM DTT, TES/KCl pH 7.4, 70 °C, argon

SMILES | HPLC fluorescence after iodine oxidation
Nc1nc2c(c(=O)[nH]1)N=C([C@H](O)[C@H](O)CO)CN2 [H2Neo, 7,8-dihydroneopterin] | it was found to catalyze the formation of 6-HMD from H2Neo
Nc1nc2c(c(=O)[nH]1)N=C(CO)CN2 [6-HMD, 6-hydroxymethyl-7,8-dihydropterin] | it was found to catalyze the formation of 6-HMD from H2Neo
